# From ChEMBL document CHEMBL3580555, “Design, Synthesis, and Biological Evaluation of Novel Imidazo[1,2-a]pyridine Derivatives as Potent c-Met Inhibitors” (ACS Med Chem Lett, 2015)
# Activity calls are given as the source filed them. No cut-off for these calls is given here.
# Assays:
# [1] = Drug metabolism in monkey liver microsomes assessed as 2-Fluoro-4-(8-fluoro-3-(hydroxy(quinolin-6-yl)methyl)imidazo[1,2-a]pyridin-6-yl)-N-methylbenzamide metabolite formation after 60 mins by UPLC/Q-TOF MS/MS analysis; format: ADME, Macaca mulatta; settings: rhesus monkey, 1 h
# [2] = Antiproliferative activity against human MKN45 cells after 72 hrs; format: functional, cell-based; settings: MKN-45, 72 h
# Mus musculus = assay: Toxicity in human EBC1 cells xenografted in mouse assessed as weight losses treated at 50 to 100 mg/kg, po for 3 weeks; format: organism-based; settings: in vivo, 504 h
# NCI-H23 = assay: Antiproliferative activity against human NCI-H23 cells after 72 hrs; format: functional, cell-based; settings: NCI-H23, 72 h
# NCI-H1650 = assay: Antiproliferative activity against human NCI-H1650 cells after 72 hrs; format: functional, cell-based; settings: NCI-H1650, 72 h
# [3] = target: Tyrosine-protein kinase receptor UFO (Homo sapiens, UniProt P30530); assay: Inhibition of Axl (unknown origin) using polu (Glu,Tyr)4:1 substrate after 30 mins incubation by multi-well spectrophotometry
# [4] = Antitumor activity against human EBC1 cells xenografted in mouse assessed as tumor growth inhibition treated at 100 mg/kg, po for 3 weeks; format: functional; settings: EBC-1, po, 504 h
# NCI-H596 = assay: Antiproliferative activity against human NCI-H596 cells after 72 hrs; format: functional, cell-based; settings: NCI-H596, 72 h
# AGS = assay: Antiproliferative activity against human AGS cells after 72 hrs; format: functional, cell-based
# NCI-H358 = assay: Antiproliferative activity against human NCI-H358 cells after 72 hrs; format: functional, cell-based; settings: NCI-H358, 72 h
# [5] = target: Voltage-gated inwardly rectifying potassium channel KCNH2 (Homo sapiens, UniProt Q12809); assay: Inhibition of human ERG channel
# NCI-H520 = assay: Antiproliferative activity against human NCI-H520 cells after 72 hrs; format: functional, cell-based; settings: NCI-H520, 72 h
# [6] = Antiproliferative activity against human SNU16 cells after 72 hrs; format: functional, cell-based; settings: SNU-16, 72 h
# SNU1 = assay: Antiproliferative activity against human SNU1 cells after 72 hrs; format: functional, cell-based; settings: SNU1, 72 h
# [7] = Antiproliferative activity against human SPCA1 cells after 72 hrs; format: functional, cell-based; settings: SPCA1, 72 h
# NCI-H226 = assay: Antiproliferative activity against human NCI-H226 cells after 72 hrs; format: functional, cell-based; settings: NCI-H226, 72 h
# MDCK = assay: Reduction in HGF-induced cell scattering of MDCK cells after 24 hrs by microscopy; format: functional, cell-based; settings: Canis lupus familiaris
# [8] = Antitumor activity against human EBC1 cells xenografted in mouse assessed as tumor growth inhibition treated at 50 mg/kg, po for 3 weeks; format: functional; settings: EBC-1, po, 504 h, read-out: INH
# Liver microsome [9] = assay: Drug metabolism in Sprague-Dawley rat liver microsomes assessed as 2-Fluoro-4-(8-fluoro-3-(hydroxy(quinolin-6-yl)methyl)imidazo[1,2-a]pyridin-6-yl)-N-methylbenzamide metabolite formation after 60 mins by UPLC/Q-TOF MS/MS analysis; format: ADME; settings: 1 h
# [10] = Antiproliferative activity against human MKN74 cells after 72 hrs; format: functional, cell-based; settings: MKN-74, 72 h
# [11] = Oral bioavailability in Sprague-Dawley rat at 20 mg/kg; format: ADME, organism-based; settings: in vivo
# [12] = Antiproliferative activity against human MKN1 cells after 72 hrs; format: functional, cell-based; settings: MKN-1, 72 h
# Liver microsome [13] = assay: Drug metabolism in beagle dog liver microsomes assessed as 2-Fluoro-4-(8-fluoro-3-(hydroxy(quinolin-6-yl)methyl)imidazo[1,2-a]pyridin-6-yl)-N-methylbenzamide metabolite formation after 60 mins by UPLC/Q-TOF MS/MS analysis; format: ADME, Canis lupus familiaris; settings: 1 h
# [14] = Antiproliferative activity against human EBC1 cells after 72 hrs; settings: EBC-1, 72 h
# NCI-H441 [15] = assay: Inhibition of HGF-induced human NCI-H441 cell migration at 500 nM after 24 hrs by spectrophotometry; format: functional, cell-based
# [16] = Half life in Sprague-Dawley rat at 10 mg/kg, iv; format: ADME, organism-based; settings: in vivo
# Liver microsome [17] = assay: Drug metabolism in human liver microsomes assessed as 2-Fluoro-4-(8-fluoro-3-(hydroxy(quinolin-6-yl)methyl)imidazo[1,2-a]pyridin-6-yl)-N-methylbenzamide metabolite formation after 60 mins by UPLC/Q-TOF MS/MS analysis; format: ADME; settings: 1 h
# [18] = Drug metabolism in CD1 mouse liver microsomes assessed as 2-Fluoro-4-(8-fluoro-3-(hydroxy(quinolin-6-yl)methyl)imidazo[1,2-a]pyridin-6-yl)-N-methylbenzamide metabolite formation after 60 mins by UPLC/Q-TOF MS/MS analysis; format: ADME; settings: 1 h
# BaF3 = assay: Antiproliferative activity against mouse BAF3/TPR-Met cells after 72 hrs; format: functional, cell-based; settings: BaF3, 72 h
# [19] = target: Tyrosine-protein kinase Mer (Homo sapiens, UniProt Q12866); assay: Inhibition of Mer (unknown origin) using polu (Glu,Tyr)4:1 substrate after 30 mins incubation by multi-well spectrophotometry
# EBC-1 [20] = assay: Antitumor activity against human EBC1 cells xenografted in po dosed mouse assessed as tumor growth inhibition treated for 3 weeks; format: functional, organism-based
# Liver microsome [21] = assay: Drug formation in Sprague-Dawley rat liver microsomes treated with 2-Fluoro-4-(8-fluoro-3-(quinolin-6-ylmethyl)imidazo[1,2-a]pyridin-6-yl)-N-methylbenzamide after 60 mins by UPLC/Q-TOF MS/MS analysis; format: ADME; settings: 1 h
# NCI-H1975 = assay: Antiproliferative activity against human NCI-H1975 cells after 72 hrs; format: functional, cell-based; settings: NCI-H1975, 72 h
# [22] = Antiproliferative activity against human SGC7901 cells after 72 hrs; format: functional, cell-based; settings: SGC-7901, 72 h
# NCI-H661 = assay: Antiproliferative activity against human NCI-H661 cells after 72 hrs; format: functional, cell-based; settings: NCI-H661, 72 h
# HT-29 = assay: Antiproliferative activity against human HT-29 cells after 72 hrs; format: functional, cell-based; settings: HT-29, 72 h
# NCI-H441 [23] = assay: Inhibition of HGF-induced human NCI-H441 cell invasion at 500 nM after 24 hrs by spectrophotometry; format: functional, cell-based
# [24] = Antiproliferative activity against human SPCA4 cells after 72 hrs; format: functional, cell-based; settings: SPC-A4, 72 h
# [25] = Antiproliferative activity against human SNU5 cells after 72 hrs; format: functional, cell-based; settings: SNU-5, 72 h
# EBC-1 [26] = assay: Induction of cell cycle arrest in human EBC1 cells assessed as cell accumulation at G1 phase at 1 uM after 24 hrs by FACS analysis (reference value: 52.95%); format: functional
# NCI-H292 = assay: Antiproliferative activity against human NCI-H292 cells after 72 hrs; format: functional, cell-based; settings: NCI-H292, 72 h
# [27] = target: Tyrosine-protein kinase receptor TYRO3 (Homo sapiens, UniProt Q06418); assay: Inhibition of Tyro3 (unknown origin) using polu (Glu,Tyr)4:1 substrate after 30 mins incubation by multi-well spectrophotometry
# MGC-803 = assay: Antiproliferative activity against human MGC803 cells after 72 hrs; format: functional, cell-based; settings: MGC-803, 72 h
# A549 = assay: Antiproliferative activity against human A549 cells after 72 hrs; format: functional, cell-based; settings: A549, 72 h
# [28] = Antiproliferative activity against human BGC823 cells after 72 hrs; format: functional, cell-based; settings: BGC-823, 72 h
# NCI-H1299 = assay: Antiproliferative activity against human NCI-H1299 cells after 72 hrs; format: functional, cell-based; settings: NCI-H1299, 72 h
# EBC-1 [29] = assay: Induction of cell cycle arrest in human EBC1 cells assessed as cell accumulation at G1/S phase at 1 uM after 24 hrs by FACS analysis; format: functional, cell-based
# [30] = Antiproliferative activity against human Calu3 cells after 72 hrs; format: functional, cell-based; settings: Calu-3, 72 h
# Sequence of Tyrosine-protein kinase receptor TYRO3 (Q06418 whole entry): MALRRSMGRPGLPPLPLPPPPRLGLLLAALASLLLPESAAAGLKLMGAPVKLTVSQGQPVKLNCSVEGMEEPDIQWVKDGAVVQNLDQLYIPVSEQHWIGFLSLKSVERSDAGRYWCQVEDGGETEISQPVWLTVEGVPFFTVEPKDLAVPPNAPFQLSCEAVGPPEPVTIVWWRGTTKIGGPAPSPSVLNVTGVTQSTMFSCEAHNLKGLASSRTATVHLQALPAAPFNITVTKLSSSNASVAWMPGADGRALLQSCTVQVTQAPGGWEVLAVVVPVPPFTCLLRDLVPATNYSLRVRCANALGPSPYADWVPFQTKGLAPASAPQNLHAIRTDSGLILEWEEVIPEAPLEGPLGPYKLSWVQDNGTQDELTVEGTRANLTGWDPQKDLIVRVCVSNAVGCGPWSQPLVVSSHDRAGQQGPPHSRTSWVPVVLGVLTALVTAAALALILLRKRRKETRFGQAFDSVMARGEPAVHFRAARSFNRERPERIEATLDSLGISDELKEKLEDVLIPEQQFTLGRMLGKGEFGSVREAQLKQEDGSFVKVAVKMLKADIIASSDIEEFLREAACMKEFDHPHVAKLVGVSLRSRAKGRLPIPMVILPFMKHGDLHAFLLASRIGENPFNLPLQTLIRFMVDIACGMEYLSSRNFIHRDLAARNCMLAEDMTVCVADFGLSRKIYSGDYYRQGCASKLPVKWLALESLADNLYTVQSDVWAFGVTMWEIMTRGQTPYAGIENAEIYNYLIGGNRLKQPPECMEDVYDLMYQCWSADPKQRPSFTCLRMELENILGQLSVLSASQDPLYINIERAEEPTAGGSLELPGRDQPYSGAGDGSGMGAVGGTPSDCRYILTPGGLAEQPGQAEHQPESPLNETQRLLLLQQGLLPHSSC
# Sequence of Voltage-gated inwardly rectifying potassium channel KCNH2 (Q12809 whole entry): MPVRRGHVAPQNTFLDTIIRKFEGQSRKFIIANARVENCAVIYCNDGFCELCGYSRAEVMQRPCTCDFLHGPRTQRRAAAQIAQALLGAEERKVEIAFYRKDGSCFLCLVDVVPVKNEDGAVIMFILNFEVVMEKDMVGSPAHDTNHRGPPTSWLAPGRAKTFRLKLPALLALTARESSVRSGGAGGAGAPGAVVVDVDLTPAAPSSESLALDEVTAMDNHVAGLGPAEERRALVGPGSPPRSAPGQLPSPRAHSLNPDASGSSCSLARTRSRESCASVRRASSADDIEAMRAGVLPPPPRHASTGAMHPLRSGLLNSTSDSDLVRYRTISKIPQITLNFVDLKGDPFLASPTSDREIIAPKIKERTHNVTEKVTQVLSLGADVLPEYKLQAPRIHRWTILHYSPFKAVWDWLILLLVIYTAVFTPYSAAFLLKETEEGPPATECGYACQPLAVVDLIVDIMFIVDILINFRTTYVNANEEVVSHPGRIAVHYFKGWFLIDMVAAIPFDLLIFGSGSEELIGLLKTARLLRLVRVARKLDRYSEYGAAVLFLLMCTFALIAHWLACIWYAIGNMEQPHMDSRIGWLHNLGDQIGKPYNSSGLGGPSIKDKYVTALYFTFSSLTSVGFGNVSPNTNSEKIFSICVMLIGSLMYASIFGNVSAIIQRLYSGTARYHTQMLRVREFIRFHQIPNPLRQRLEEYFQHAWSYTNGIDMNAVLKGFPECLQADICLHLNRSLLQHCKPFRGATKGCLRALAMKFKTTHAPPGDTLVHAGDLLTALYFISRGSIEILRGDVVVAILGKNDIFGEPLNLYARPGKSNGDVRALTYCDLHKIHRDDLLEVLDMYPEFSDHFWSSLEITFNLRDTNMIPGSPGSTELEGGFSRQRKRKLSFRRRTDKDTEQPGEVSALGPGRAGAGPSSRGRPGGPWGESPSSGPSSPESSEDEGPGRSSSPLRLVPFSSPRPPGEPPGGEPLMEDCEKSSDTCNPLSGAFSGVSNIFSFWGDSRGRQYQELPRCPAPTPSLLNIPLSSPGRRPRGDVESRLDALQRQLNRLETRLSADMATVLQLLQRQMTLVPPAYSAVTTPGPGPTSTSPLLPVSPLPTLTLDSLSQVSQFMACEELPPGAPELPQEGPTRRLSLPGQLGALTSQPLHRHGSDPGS
# Sequence of Tyrosine-protein kinase Mer (Q12866 whole entry): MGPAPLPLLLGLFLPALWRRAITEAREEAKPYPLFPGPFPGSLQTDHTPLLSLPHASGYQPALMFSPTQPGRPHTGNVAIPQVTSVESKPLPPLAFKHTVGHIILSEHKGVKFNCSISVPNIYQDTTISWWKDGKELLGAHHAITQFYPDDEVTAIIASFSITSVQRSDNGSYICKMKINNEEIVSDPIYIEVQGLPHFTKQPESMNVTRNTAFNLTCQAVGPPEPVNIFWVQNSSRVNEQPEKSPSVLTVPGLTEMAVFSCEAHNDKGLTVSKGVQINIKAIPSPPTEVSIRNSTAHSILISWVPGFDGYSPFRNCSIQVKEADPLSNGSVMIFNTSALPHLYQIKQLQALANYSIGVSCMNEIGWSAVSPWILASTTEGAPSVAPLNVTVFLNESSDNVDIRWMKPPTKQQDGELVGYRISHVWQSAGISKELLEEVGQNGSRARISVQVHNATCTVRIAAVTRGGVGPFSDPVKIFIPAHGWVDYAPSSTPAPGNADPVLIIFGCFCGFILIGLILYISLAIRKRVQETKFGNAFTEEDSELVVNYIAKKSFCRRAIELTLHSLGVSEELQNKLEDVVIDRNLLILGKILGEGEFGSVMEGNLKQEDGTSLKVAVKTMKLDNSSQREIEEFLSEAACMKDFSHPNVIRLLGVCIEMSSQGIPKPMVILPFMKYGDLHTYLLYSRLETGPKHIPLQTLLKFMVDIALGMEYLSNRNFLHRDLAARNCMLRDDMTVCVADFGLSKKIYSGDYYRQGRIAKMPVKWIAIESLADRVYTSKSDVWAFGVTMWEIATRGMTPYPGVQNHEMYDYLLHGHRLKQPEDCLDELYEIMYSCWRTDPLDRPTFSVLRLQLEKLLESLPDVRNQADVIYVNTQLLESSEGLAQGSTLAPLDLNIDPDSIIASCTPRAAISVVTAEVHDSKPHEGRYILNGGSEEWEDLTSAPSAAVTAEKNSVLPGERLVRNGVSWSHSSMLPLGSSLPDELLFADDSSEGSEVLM
# Sequence of Tyrosine-protein kinase receptor UFO (P30530 whole entry): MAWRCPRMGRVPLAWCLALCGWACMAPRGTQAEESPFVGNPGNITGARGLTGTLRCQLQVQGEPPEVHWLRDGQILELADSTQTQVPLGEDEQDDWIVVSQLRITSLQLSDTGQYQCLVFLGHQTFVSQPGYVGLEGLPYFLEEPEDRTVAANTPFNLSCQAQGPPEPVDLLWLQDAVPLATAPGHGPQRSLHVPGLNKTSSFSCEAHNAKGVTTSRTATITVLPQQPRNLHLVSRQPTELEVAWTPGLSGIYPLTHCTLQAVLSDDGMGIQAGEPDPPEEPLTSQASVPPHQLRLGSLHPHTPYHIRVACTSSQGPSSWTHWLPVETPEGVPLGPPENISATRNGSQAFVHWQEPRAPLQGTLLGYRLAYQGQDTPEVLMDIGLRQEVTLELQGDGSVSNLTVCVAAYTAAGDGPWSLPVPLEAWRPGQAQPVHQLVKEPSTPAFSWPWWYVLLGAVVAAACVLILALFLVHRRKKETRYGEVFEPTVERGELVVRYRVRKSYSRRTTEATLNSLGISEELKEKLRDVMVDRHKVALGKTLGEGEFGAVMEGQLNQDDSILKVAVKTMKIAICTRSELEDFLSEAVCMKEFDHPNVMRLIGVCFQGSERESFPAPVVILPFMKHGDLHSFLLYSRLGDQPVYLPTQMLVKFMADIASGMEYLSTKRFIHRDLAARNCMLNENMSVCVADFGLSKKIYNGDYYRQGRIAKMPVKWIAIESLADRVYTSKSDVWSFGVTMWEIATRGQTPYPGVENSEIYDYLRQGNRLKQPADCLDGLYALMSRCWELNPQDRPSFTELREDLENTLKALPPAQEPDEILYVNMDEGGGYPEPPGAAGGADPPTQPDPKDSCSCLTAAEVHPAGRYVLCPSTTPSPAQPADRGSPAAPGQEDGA
structure (smiles),measurement,setting,value
CNC(=O)c1ccc(-c2cc(F)c3ncc(Cc4ccc5ncccc5c4)n3c2)cc1F,Drug metabolism,[1],metabolite_detected
same,IC50,[2],0.0909 µM
same,Activity,Mus musculus,Non-toxic
same,IC50,NCI-H23,> 50 µM
same,IC50,NCI-H1650,> 50 µM
same,IC50,[3],> 10 µM
same,inhibition in vivo at 100 mg/kg,[4],75%
same,IC50,NCI-H596,> 50 µM
same,IC50,AGS,> 50 µM
same,IC50,NCI-H358,> 50 µM
same,IC50,[5],93.6 µM
same,IC50,NCI-H520,> 50 µM
same,IC50,[6],> 50 µM
same,IC50,SNU1,> 50 µM
same,IC50,[7],> 50 µM
same,IC50,NCI-H226,> 50 µM
same,inhibition,MDCK,Dose-dependent effect
same,inhibition in vivo at 50 mg/kg,[8],62.9%
same,Drug metabolism,Liver microsome [9],metabolite_notdetected
same,IC50,[10],> 50 µM
same,bioavailability,[11],29.4%
same,IC50,[12],> 50 µM
same,Drug metabolism,Liver microsome [13],metabolite_detected
same,IC50,[14],0.045 µM
same,inhibition,NCI-H441 [15],Active
same,half-life,[16],1.17 h
same,Drug metabolism,Liver microsome [17],metabolite_detected
same,Drug metabolism,[18],metabolite_detected
same,IC50,BaF3,0.203 µM
same,IC50,[19],> 10 µM
same,TGI,EBC-1 [20],Dose-dependent effect
same,Drug metabolism,Liver microsome [21],metabolite_notdetected
same,IC50,NCI-H1975,> 50 µM
same,IC50,[22],> 50 µM
same,IC50,NCI-H661,> 50 µM
same,IC50,HT-29,> 50 µM
same,inhibition,NCI-H441 [23],Active
same,IC50,[24],> 50 µM
same,IC50,[25],0.0702 µM
same,Activity,EBC-1 [26],81.84%
same,IC50,NCI-H292,> 50 µM
same,IC50,[27],> 10 µM
same,IC50,MGC-803,> 50 µM
same,IC50,A549,> 50 µM
same,IC50,[28],> 50 µM
same,IC50,NCI-H1299,> 50 µM
same,Activity,EBC-1 [29],Active
same,IC50,[30],> 50 µM
